Measured values taken from patent US8163755B2, “Hexahydrooxazinopterine compounds” (Takeda Pharmaceutical Company Limited, priority 2009, dated 2012).
Where a name gives a salt, the structure may show the parent alone.

biological target: T1, human mTOR (Homo sapiens, UniProt P42345); assay: Inhibition of mTOR (Example A, LanthaScreen TR-FRET, GFP-4E-BP1 substrate); assay type: biochemical; details: inhibition of human mTOR in the assay of Example A
T1 construct: purchased Invitrogen
Experimental: Example A Inhibition of mTOR
Purified mTOR are purchased from Invitrogen. mTOR activity was determined using Invitrogen's LanthaScreen system. The inhibitory properties of compounds relative to mTOR may be determined using a black 384-well-plate format in the following buffer 50 mM Hepes, 10 mM NaCl, 10 mM MgCl2, 0.2 mM EDTA, 0.01% Brij35, 2 mM DTT at pH7.3. The test compound is prepared in DMSO using 2 fold serial dilutions for 11 data points which are added to the buffer so that each dilution contains 3% DMSO.
An Assay for mTOR Inhibition is as Follows:
Combine in each well 2 μl of 1.2 μM GFP-4E-BP1 (Invitrogen) and 150 μM ATP (in buffer), 2 μl of diluted test compound (3% DMSO in buffer), and 2 μl of 6 nM mTor in buffer. The reaction mixture is then incubated at room temperature for 30 min, and quenched by adding 40 mM ETDA with 4 nM Tb-anti-p4E-BP1 [pThr46] antibody in TR-FRET dilution buffer (Invitrogen). The plate is kept at room temperature for 1 hour and then read using PheraStar (BMG labtech) LanthaScreen mode.
pIC50 values, the negative of the log of the IC50, are calculated by non-linear curve fitting of the compound concentrations and percent of inhibition to the standard pIC50 equation.

CNC(=O)Nc1ccc(-c2ncc3c(n2)N2CCOCC2(C)C(=O)N3CC2CC2)cc1 (centres unmarked) [Example 1, 1-(4-(5-(cyclopropylmethyl)-6a-methyl-6-oxo-5,6,6a,7,9,10-hexahydro-[1,4]oxazino[3,4-h]pteridin-2-yl)phenyl)-3-methylurea] and CNC(=O)Nc1ccc(-c2ncc3c(n2)N2CCOC[C@]2(C)C(=O)N3CC2CC2)cc1 [Example 3, (R)-1-(4-(5-(cyclopropylmethyl)-6a-methyl-6-oxo-5,6,6a,7,9,10-hexahydro-[1,4]oxazino[3,4-h]pteridin-2-yl)phenyl)-3-methylurea] cannot be ordered by IC50: < 31.6 nM for the first, < 31.6 nM for the second.

First: CNC(=O)Nc1ccc(-c2ncc3c(n2)N2CCOC[C@@]2(C)C(=O)N3CC2CC2)cc1 [Example 4, (S)-1-(4-(5-(cyclopropylmethyl)-6a-methyl-6-oxo-5,6,6a,7,9,10-hexahydro-[1,4]oxazino[3,4-h]pteridin-2-yl)phenyl)-3-methylurea]
Second: CNC(=O)Nc1ccc(-c2ncc3c(n2)N2CCOCC2(C)C(=O)N3CC2CCC2)cc1 (centres unmarked) [Example 16, 1-(4-(5-(cyclobutylmethyl)-6a-methyl-6-oxo-5,6,6a,7,9,10-hexahydro-[1,4]oxazino[3,4-h]pteridin-2-yl)phenyl)-3-methylurea]
The IC50 of the first is higher: 31.6 to 1000 nM for the first, < 31.6 nM for the second. The second is the more potent here.

CCNC(=O)Nc1ccc(-c2ncc3c(n2)N2CCOCC2(C)C(=O)N3CC2CC2)cc1 (centres unmarked) [Example 5, 1-(4-(5-(cyclopropylmethyl)-6a-methyl-6-oxo-5,6,6a,7,9,10-hexahydro-[1,4]oxazino[3,4-h]pteridin-2-yl)phenyl)-3-ethylurea, TFA salt] and CCNC(=O)Nc1ccc(-c2ncc3c(n2)N2CCOC[C@@]2(C)C(=O)N3CC2CC2)cc1 [Example 7, (S)-1-(4-(5-(cyclopropylmethyl)-6a-methyl-6-oxo-5,6,6a,7,9,10-hexahydro-[1,4]oxazino[3,4-h]pteridin-2-yl)phenyl)-3-ethylurea] cannot be ordered by IC50: < 31.6 nM for the first, < 31.6 nM for the second.

Compared with CC12COCCN1c1nc(-c3ccc(NC(=O)NC4CC4)cc3)ncc1N(CC1CC1)C2=O (centres unmarked) [Example 6, 1-cyclopropyl-3-(4-(5-(cyclopropylmethyl)-6a-methyl-6-oxo-5,6,6a,7,9,10-hexahydro-[1,4]oxazino[3,4-h]pteridin-2-yl)phenyl)urea, TFA salt], C[C@@]12COCCN1c1nc(-c3ccc(NC(=O)NC4CC4)cc3)ncc1N(CC1CC1)C2=O [Example 9, (S)-1-cyclopropyl-3-(4-(5-(cyclopropylmethyl)-6a-methyl-6-oxo-5,6,6a,7,9,10-hexahydro-[1,4]oxazino[3,4-h]pteridin-2-yl)phenyl)urea] is lower in IC50: 31.6 to 1000 nM for the first, < 31.6 nM for the second.

First: CNC(=O)Nc1ccc(-c2ncc3c(n2)N2CCOCC2(C)C(=O)N3Cc2ccn(C)n2)cc1 (centres unmarked) [Example 11, 1-methyl-3-(4-(6a-methyl-5-((1-methyl-1H-pyrazol-3-yl)methyl)-6-oxo-5,6,6a,7,9,10-hexahydro-[1,4]oxazino[3,4-h]pteridin-2-yl)phenyl)urea]
Second: CNC(=O)Nc1ccc(-c2ncc3c(n2)N2CCOCC2(C)C(=O)N3CCCOC)cc1 (centres unmarked) [Example 35, 1-(4-[5-(3-methoxypropyl)-6a-methyl-6-oxo-5,6,6a,7,9,10-hexahydro[1,4]oxazino[3,4-h]pteridin-2-yl]phenyl)-3-methylurea]
The IC50 of the first is higher: 31.6 to 1000 nM for the first, < 31.6 nM for the second.

Compared with CNC(=O)Nc1ccc(-c2nc(N3CCOCC3)c3c(n2)N2CCOCC2(C)C(=O)N3C)cc1 (centres unmarked) [Example 14, 1-(4-(5,6a-dimethyl-4-morpholino-6-oxo-5,6,6a,7,9,10-hexahydro-[1,4]oxazino[3,4-h]pteridin-2-yl)phenyl)-3-methylurea], CNC(=O)Nc1ccc(-c2ncc3c(n2)N2CCOC[C@@]2(C)C(=O)N3C2CCOCC2)cc1 [Example 26, (S)-1-methyl-3-(4-(6a-methyl-6-oxo-5-(tetrahydro-2H-pyran-4-yl)-5,6,6a,7,9,10-hexahydro-[1,4]oxazino[3,4-h]pteridin-2-yl)phenyl)urea] is lower in IC50: 31.6 to 1000 nM for the first, < 31.6 nM for the second. The second is the more potent here.

Going from CNC(=O)Nc1ccc(-c2ncc3c(n2)N2CCOCC2(C)C(=O)N3C(C)C)cc1 (centres unmarked) [Example 15, 1-(4-(5-isopropyl-6a-methyl-6-oxo-5,6,6a,7,9,10-hexahydro-[1,4]oxazino[3,4-h]pteridin-2-yl)phenyl)-3-methylurea] to CNC(=O)Nc1ccc(-c2ncc3c(n2)N2CCOCC2(C)C(=O)N3C(C)(C)C(=O)O)cc1 (centres unmarked) [Example 20, 2-methyl-2-(6a-methyl-2-(4-(3-methylureido)phenyl)-6-oxo-6a,7,9,10-tetrahydro-[1,4]oxazino[3,4-h]pteridin-5(6H)-yl)propanoic acid TFA salt], the IC50 rises from < 31.6 nM to > 1000 nM. The first is the more potent here.

First: CNC(=O)Nc1ccc(-c2ncc3c(n2)N2CCOCC2(C)C(=O)N3C2CC2)cc1 (centres unmarked) [Example 17, 1-(4-(5-cyclopropyl-6a-methyl-6-oxo-5,6,6a,7,9,10-hexahydro-[1,4]oxazino[3,4-h]pteridin-2-yl)phenyl)-3-methylurea]
Second: CC12COCCN1c1nc(-c3ccc(NC(=O)NC4CC4)cc3)ncc1N(C1CCOC1)C2=O (centres unmarked) [Example 30, 1-cyclopropyl-3-(4-(6a-methyl-6-oxo-5-(tetrahydrofuran-3-yl)-5,6,6a,7,9,10-hexahydro-[1,4]oxazino[3,4-h]pteridin-2-yl)phenyl)urea]
The IC50 of the first is higher: 31.6 to 1000 nM for the first, < 31.6 nM for the second. The second is the more potent here.

Compared with CNC(=O)Nc1ccc(-c2ncc3c(n2)N2CCO[C@@H](C)[C@@]2(C)C(=O)N3CC2CC2)cc1 [Example 18, 1-(4-((6aS,7S)-5-(cyclopropylmethyl)-6a,7-dimethyl-6-oxo-5,6,6a,7,9,10-hexahydro-[1,4]oxazino[3,4-h]pteridin-2-yl)phenyl)-3-methylurea], CNC(=O)Nc1ccc(-c2ncc3c(n2)N2C[C@@H](C)OC[C@]2(C)C(=O)N3CC2CC2)cc1 [Example 19, 1-(4-((6aR,9R)-5-(cyclopropylmethyl)-6a,9-dimethyl-6-oxo-5,6,6a,7,9,10-hexahydro-[1,4]oxazino[3,4-h]pteridin-2-yl)phenyl)-3-methylurea] is higher in IC50: < 31.6 nM for the first, 31.6 to 1000 nM for the second.

CNC(=O)Nc1ccc(-c2ncc3c(n2)N2CCOCC2(C)C(=O)N3C[C@H](O)CO)cc1 (stereo partly drawn) [Example 22, 1-(4-(5-((S)-2,3-dihydroxypropyl)-6a-methyl-6-oxo-5,6,6a,7,9,10-hexahydro-[1,4]oxazino[3,4-h]pteridin-2-yl)phenyl)-3-methylurea] and CNC(=O)Nc1ccc(-c2ncc3c(n2)N2CCOC[C@@]2(C)C(=O)N3C[C@H](O)CO)cc1 [Example 23] fall in the same range of IC50: 31.6 to 1000 nM for the first, 31.6 to 1000 nM for the second.

Compared with CNC(=O)Nc1ccc(-c2ncc3c(n2)N2CCOC[C@]2(C)C(=O)N3C[C@H](O)CO)cc1 [Example 24], CNC(=O)Nc1ccc(-c2ncc3c(n2)N2CCOC[C@@]2(C)C(=O)N3CCCOC)cc1 [Example 36, (S)-1-(4-[5-(3-methoxypropyl)-6a-methyl-6-oxo-5,6,6a,7,9,10-hexahydro[1,4]oxazino[3,4-h]pteridin-2-yl]phenyl)-3-methylurea] is lower in IC50: > 1000 nM for the first, < 31.6 nM for the second. The second is the more potent here.

CNC(=O)Nc1ccc(-c2ncc3c(n2)N2CCOCC2(C)C(=O)N3CC(C)(C)C)cc1 (centres unmarked) [Example 28, 1-methyl-3-(4-(6a-methyl-5-neopentyl-6-oxo-5,6,6a,7,9,10-hexahydro-[1,4]oxazino[3,4-h]pteridin-2-yl)phenyl)urea] and CC(F)(F)CN1C(=O)C2(C)COCCN2c2nc(-c3ccc(NC(=O)NC4CC4)cc3)ncc21 (centres unmarked) [Example 47, 1-cyclopropyl-3-(4-(5-(2,2-difluoropropyl)-6a-methyl-6-oxo-5,6,6a,7,9,10-hexahydro-[1,4]oxazino[3,4-h]pteridin-2-yl)phenyl)urea] cannot be ordered by IC50: < 31.6 nM for the first, < 31.6 nM for the second.

COCCCN1C(=O)[C@]2(C)COCCN2c2nc(-c3ccc(NC(=O)NC4CC4)cc3)ncc21 [Example 41, (S)-1-cyclopropyl-3-(4-(5-(3-methoxypropyl)-6a-methyl-6-oxo-5,6,6a,7,9,10-hexahydro-[1,4]oxazino[3,4-h]pteridin-2-yl)phenyl)urea] and CC12COCCN1c1nc(-c3ccc(NC(=O)NC4CC4)cc3)ncc1N(CCCS(C)(=O)=O)C2=O (centres unmarked) [Example 46, 1-cyclopropyl-3-(4-(6a-methyl-5-(3-(methylsulfonyl)propyl)-6-oxo-5,6,6a,7,9,10-hexahydro-[1,4]oxazino[3,4-h]pteridin-2-yl)phenyl)urea] cannot be ordered by IC50: < 31.6 nM for the first, < 31.6 nM for the second.

Compared with CC12COCCN1c1nc(-c3ccc(NC(=O)NC4CC4)cc3)ncc1N(C1CCS(=O)(=O)CC1)C2=O (centres unmarked) [Example 45, 1-cyclopropyl-3-(4-[5-(1,1-dioxidotetrahydro-2H-thiopyran-4-yl)-6a-methyl-6-oxo-5,6,6a,7,9,10-hexahydro[1,4]oxazino[3,4-h]pteridin-2-yl]phenyl)urea], CC(F)(F)CN1C(=O)[C@]2(C)COCCN2c2nc(-c3ccc(NC(=O)NC4CC4)cc3)ncc21 [Example 49, (S)-1-cyclopropyl-3-(4-(5-(2,2-difluoropropyl)-6a-methyl-6-oxo-5,6,6a,7,9,10-hexahydro-[1,4]oxazino[3,4-h]pteridin-2-yl)phenyl)urea] is lower in IC50: 31.6 to 1000 nM for the first, < 31.6 nM for the second. The second is the more potent here.

In the case of C[C@]12COCCN1c1nc(-c3ccc(NC(=O)NC4CC4)cc3)ncc1N(CC(F)(F)F)C2=O [Example 53, (R)-1-cyclopropyl-3-(4-(6a-methyl-6-oxo-5-(2,2,2-trifluoroethyl)-5,6,6a,7,9,10-hexahydro-[1,4]oxazino[3,4-h]pteridin-2-yl)phenyl)urea], the IC50 is reported as < 31.6 nM.
